5 compounds from patent publication EP0210351A2, “Use of porphyrin derivatives in the detection and treatment of tumours” (Nippon Petrochemicals Co., Ltd., priority 1985, dated 1987) can be followed below.

Assay [1] deals with SmT-F transplanted tumors. Put plainly: Photodynamic therapy of transplanted mouse tumors, necrotic/affected area by Evans Blue dye (Example 8). Conditions: 100 mg/kg iv, 24 hrs between drug dose and light, 200 mW/cm^2, 300 J/cm^2, wavelength nm: 2-acetyl 680, 2-formyl 690, chlorin e6 665, deutero 655, meso 652, necrotic/affected tumor area. Type of assay: in vivo, DBA/2 Ha Ros-d+Ha mice. The method, then: The treatment and evaluation procedure is as follows: • DBA/2 Ha Ros-d+Ha mice with SmT-F transplanted tumors either in the exterior part of the hind leg or the side of the mouse were injected intravenously via the external jugular or intraperitoneally with the photosensitizing drug. At the specified time after injection, the area over the tumor was shaved and the light treatment begun.
Light from a Cooper Aurora argon pumped tunable dye laser was administered via a micro lens system (developed by Dr. Daniel Doiron, D,R.D. Consulting, Santa Barbara, California) coupled through a quartz fiber to the laser. The optical properties of the lens are such that the light exits the lens in a circular pattern with homogenous intensity throughout the lighted area, The diameter of the lighted area is a function of the distance from the lens,
The light intensity was measured with a Yellow Springs Instrument Model 65 A Radiometer at the point of treatment. A 1.5 cm diameter circle of the animal's skin, centered as closely as possible over the tumor, was irradiated in all the experiments. The intensity, wavelength, and dosage of light is included in the data for individual groups of animals. Wavelengths are adjusted, using a Hartridge reversion spectroscope to within 1 nm of the stated value.
Twenty four hours after light treatment, each mouse received 5 mg of Evans Blue Dye intravenously (1). After an additional two hours, the mice were sacrificed and the tumors were sectioned vertically through the center of the light treated area. Unaffected tumor was stained blue as was unaffected normal tissue. Necrotic or affected areas were white or red in appearance. Measurements on both the whole tumors and affected areas of the tumors were made vertically and horizontally with calipers to the nearest one half millimeter.

Assay [2] has as its system Morris Hepatoma 7777 tumors. Put plainly: Photodynamic therapy, chlorin e6 compared with Photofrin II, tumor necrosis by Evans Blue dye (Example 7). The class given is in vivo, Buffalo rats. Conditions: 19 tumors treated; 20mg/kg intravenously; light 24 hours later; 665 nanometer; 100 mw/cm^2; 20 joules/cm^2. The method, then:
Male Buffalo rats (approximately 200g each), with transplanted subcutaneous Morris Hepatoma 7777 tumors on the exterior portion of the hind legs were injected intravenously via the exterior jugular with chlorin-e6 or Photofrin II, ^(2) at a dosage of 20mg/kg. Twenty four hours later, the areas over the tumors were shaved and the light treatment was begun.
Light from a Cooper Aurora argon pumped tunable dye laser was administered via a micro lens system (developed by Dr. Daniel Doiron, D.R.D. Consulting, Santa Barbara, California) coupled through a quartz fiber to the laser. The optical properties of the lens are such that the light exits the lens in a circular pattern with a homogenous intensity throughout the lighted area. The diameter of the lighted area is a function of its distance from the lens.
The light intensity was measured with a Yellow Springs Instrument Model 65A Radiometer at the point of treatment. […] Photofrin II rats were treated with 630 nanometer light in accordance with the preponderance of photodynamic therapy experiments described in the literature, using this drug, and its forerunner HPD or Photofrin I. The wavelengths of light were determined with the aid of a Hartridge reversion spectroscope to within one nanometer. […]
Nineteen tumors were evaluated for Chlorin e6 and light effect while twenty two tumors were assessed for Photofrin II and light effect.

A further assay deals with Morris Hepatoma 7777. The assay can be described thus: Photodynamic therapy, depth of tumor necrosis by Evans Blue method (Example 6). Conditions: Tumor 7777; 20 Joules/cm^2; drug dose 20 mg/kg intravenously; 24 hrs between drug and light; 665 nm; 100 mW/cm^2; n=3. Type of assay: in vivo, Buffalo rats. Here is the method: The phtotdynamic therapy experiments have been carried out on Buffalo rats, using the transplantable tumor, Morris Hepatoma 7777. The tumors were transplanted subcutaneously on the outside of the thigh. During treatment, the tumors ranged in size between 1 and 2.5 cm in diameter.
The general treatment regime is as follows. The rats are injected with a solution of the chlorin prepared as follows: 20mg of the sodium salt of the chlorin was dissolved in 1 ml of 0.9% NaCl. The chlorin solution was then injected intravenously through the external jugular while the rat was anesthetized with ether. The volume of solution injected was calculated based upon the weight of the animal and the dosage, on a weight to weight basis, for the particular experiment. […]
The lens disperses the laser beam, providing a circular distribution of light with homogenous light intensity throughout the area of the incident light beam. […] The light intensity was determined using a Yellow Springs Instrument, Model 65A, radiometer. […]
Subsequent to illumination, the animal was returned to its cage and, 24 hours later, it was treated intravenously in the external jugular vein with 14 mg of Evans Blue dye, dissolved in 250 ul of 0.9% NaCl. […] The extent of tumor necrosis was assessed by the lack of dye uptake, and the depth of the necrotic cross section of the tumor was recorded in millimeters. […]

In the case of `CCC1=C(C)c2cc3[nH]c(cc4nc(c(CC(=O)O)c5[nH]c(cc1n2)c(C)c5C(=O)O)C(CCC(=O)O)C4C)c(C)c3C(C)=O` (stereo not shown) [2-acetyl chlorin e6], in assay [1], the “X̄ ± s.d. (cm)” value is reported as 0.04±0.08 cm and the range cm was 0.00-0.15 cm.

As for `CCC1=C(C)c2cc3[nH]c(cc4nc(c(CC(=O)O)c5[nH]c(cc1n2)c(C)c5C(=O)O)C(CCC(=O)O)C4C)c(C)c3C=O` (stereo not shown) [2-formyl chlorin e6, 2-Desvinyl-2-FormylChlorin e6], in assay [1], the “X̄ ± s.d. (cm)” value turned out to be 0.33±0.12 cm and the range cm is 0.20-0.45 cm.

Take `C=Cc1c(C)c2cc3nc(c(CC(=O)O)c4[nH]c(cc5nc(cc1[nH]2)C(C)=C5CC)c(C)c4C(=O)O)[C@@H](CCC(=O)O)[C@@H]3C` [Chlorin e6]: the “number of tumors developing necrosis following treatment” value in assay [2] was 17. Also, in the assay on Morris Hepatoma 7777, the “Range mm: range of depth of necrosis within the group” value is 3.5-5 mm and the “x̄ s.d.(n): mean depth of necrosis of the tumor tissue” value is given as 4.5±0.9 (3) mm. For the same compound, in assay [1], the “X̄ ± s.d. (cm)” value turned out to be 0.26±0.05 cm and the range cm is reported as 0.20-0.35 cm.

As to `CCC1=C(C)c2cc3cc(C)c(cc4nc(c(CC(=O)O)c5[nH]c(cc1n2)c(C)c5C(=O)O)C(CCC(=O)O)C4C)[nH]3` (stereo not shown) [deuterochlorin e6, Deuterochlorin e6], in assay [1], the “X̄ ± s.d. (cm)” value was 0.59±0.07 cm and the range cm is recorded as 0.50-0.70 cm.

In the case of `CCC1=C(C)c2cc3[nH]c(cc4nc(c(CC(=O)O)c5[nH]c(cc1n2)c(C)c5C(=O)O)C(CCC(=O)O)C4C)c(C)c3CC` (stereo not shown) [mesochlorin e6, Mesochlorin e6], in assay [1], the “X̄ ± s.d. (cm)” value is 0.06±0.08 cm and the range cm is 0.00-0.15 cm.
